Results reported in patent publication US20060009478A1, “Methods for the treatment of back pain” (priority 2003, published 2006).

Key:
[1] = Plasma concentrations of oxycodone, oxymorphone, noroxycodone, naltrexone and 6β-naltrexol by solid phase extraction LC-MS/MS
From the text: Patients with moderate-to-severe pain due to osteoarthritis of the hip or knee were randomly assigned to one of four treatment groups as shown in Table 3 of Example 1. Plasma samples were obtained for each patient at the beginning of Weeks 1, 2, 3 and at the end of dosing during Week 3.
For the analysis of linearity and dose proportionality, linear equation coefficients were obtained by averaging patient-specific slopes and intercepts obtained by within-patient least squares regression. This was done to account for the correlation among the repeated measurements due to the patient's contributing data at each dose level. The resulting slopes among treatment groups were compared by one-way analysis of variance (ANOVA), and a one-sample t-test assessed the common slope's difference from zero. A measure of deviation from linearity was constructed as the difference between the concentration at the middle dose versus the average of the concentrations at the lower and higher doses. Due to equal spacing of doses, this measure has expectation zero under the hypothesis of linearity. As above, ANOVA and t-tests were used to assess linearity.
To achieve symmetry, modified log transformations were used.

[2] = tested on: patients with moderate to severe chronic low back pain; assay: Dose analysis (average titration dose, fixed dose, study drug dose of opioid agonist), low back pain study
From the text: Dose and adverse events were to be evaluated at each visit. The dose was to be increased to the next dose level if the average daily bedtime PI during the last 3 days of each preceding week was >2 and no unacceptable adverse events were reported. The dose was to be fixed, if the average daily bedtime PI during the last 3 days of each preceding week was ≦2 with no unacceptable adverse events, and the patient was to enter the 12-week fixed-dose period of the study. For these patients, the last week of the titration period was to serve as the first week of the fixed dose period. Therefore, only an additional 11 weeks of treatment were carried out. The same procedure was to occur if a patient had reached 80 mg at Week 6 of the titration period with no unacceptable adverse events.
During the titration period (Weeks 2-6, Day 1), patients returned to the study center at weekly intervals (±1 day) for up to six weeks for the following assessments: (1) opioid toxicity assessment; (2) review take-home diary (including overall daily bedtime PI and opioid-related adverse events); (3) record new/changed adverse events and concomitant medications; (4) collect study medication from previous week and account for used/unused supplies; (5) vital signs; (6) quality of analgesia; (7) global assessment of study medication; (8) dispense take-home daily diary; and (8) dispense study medication (one blister card). Dose and adverse events were evaluated at each visit. The dose was to be increased to the next dose level if the average daily bedtime PI during the last 3 days of each preceding week was >2 and no unacceptable adverse events were reported. The dose was to be fixed, if the average daily bedtime PI during the last 3 days of each preceding week was ≦2 with no unacceptable adverse events, and the patient entered the fixed-dose period of the study. For these patients, the last week of the titration period served as the first week of the fixed dose period. Therefore, only an additional 11 weeks of treatment were required. The same procedure occurred if a patient had reached 80 mg at Week 6 of the titration period with no unacceptable adverse events. If any unacceptable study drug related adverse events were encountered, the dose was to be reduced by one level. No more than one dose reduction can occur. The patient was to remain at this reduced dose for a total of 12 weeks. For patients experiencing unacceptable adverse events or intolerable pain in between scheduled clinic visits, the dose level was to be decreased or increased during the treatment week with the Sponsor's approval.

[3] = tested on: patients with moderate to severe chronic pain due to osteoarthritis of the hip or knee; assay: Pain intensity (daily diary, 11-point numerical scale), 3-week osteoarthritis study; type: in vivo, human; conditions: ITT, LOCF, average of last two days of dosing week
Experimental: A multicenter, randomized, double-blind, active- and placebo-controlled, dose escalation, clinical study was designed and conducted. […] During a 4- to 7-day washout period, patients stopped taking all of their pain medication other than acetaminophen (500 mg every 4-6 hours PRN (a maximum of 5 caplets per day)).
Pain Intensity was assessed by prompting the patient with the question, “How would you rate your overall pain intensity at this time?”, and the PI score was recorded in the clinic. Pain Intensity was also assessed by prompting the patient with the question, “How would you rate your overall pain intensity during the past 24 hours?”, and a daily PI diary score was recorded by the patient at bedtime. For both Pain Intensity prompts, the response was scored on an 11-point numerical scale (0=no pain and 10=severe pain).
For the efficacy analysis, endpoints were represented and analyzed by week. Missing efficacy data was imputed across weeks using the last-observation-carried-forward (LOCF) method. Thus, the primary procedure for the analysis of efficacy data was based on a LOCF approach.
The daily pain intensity ratings were summarized as follows. For each week, the pain intensity recorded on the last two full days of dosing within the week, restricted to Day 5 or later, was averaged. If only a single observation was available, it was used; otherwise, the endpoint was not defined. The pain intensity averages were represented as both (1) a change from baseline and (2) a percent change from baseline. The baseline value was defined as the average pain intensity over the last two values recorded during the baseline period; if necessary, a single value was used.
For primary analysis of data, the primary efficacy endpoint was the percent change from baseline in pain intensity at Week 3. Percent change in pain intensity was analyzed using ANOVA methods. The ANOVA model included factors for treatment, sex, and their interaction. Additional covariates could be added to the model for exploratory purposes. Pairwise treatment group comparisons were made using contrasts within the ANOVA framework. Testing employed Type III sums of squares. If the assumptions of the parametric tests were not valid, non-parametric tests were used.

[4] = mg of opioid agonist, ITT population
[5] = 11-point scale 0=no pain, 10=severe pain

**Q.** For `COc1ccc2c3c1O[C@H]1C(=O)CC[C@@]4(O)[C@@H](C2)N(C)CC[C@]314` [OXY QID, oxycodone], which “Mean plasma concentration versus dose level over the course of the study” value ([1]; FIGS. 1 and 2) is on record?
**A.** The value was “increased linearly with increasing dose levels”.

**Q.** What about the “Plasma concentration of oxycodone (ng/mL) versus dose of oxycodone (mg/day): slope of linear equation” value ([1]; average of patient-specific regressions, slope p<0.001, t-test) of the same compound?
**A.** Its value is 0.4223.

**Q.** What about the “Plasma concentration of oxycodone versus dose of oxycodone (mg/day): intercept of linear equation” value ([1]; average of patient-specific within-patient least squares regressions, all active treatments) of the same compound?
**A.** Its value is 2.28 ng/mL.

**Q.** What about the “Mean study drug dose of oxycodone” value ([2]; entire study period (titration and fixed-dose), ITT) of the same compound?
**A.** Its value is 39.0 mg.

**Q.** And the “Mean fixed dose of oxycodone” value ([2]; fixed-dose period, ITT)?
**A.** The value was 57.2 mg.

**Q.** And the “AVERAGE FIXED DOSE, MAXIMUM” value [2, 4]?
**A.** The value was 80.0 mg.

**Q.** And the “AVERAGE FIXED DOSE, MEAN (SD)” value [2, 4]?
**A.** Its value is 57.2 (23.35) MG.

**Q.** What about the “AVERAGE FIXED DOSE, MEDIAN” value [2, 4] of the same compound?
**A.** Its value is 60.0 mg.

**Q.** And the “AVERAGE FIXED DOSE, MINIMUM” value [2, 4]?
**A.** Its value is 10.0 mg.

**Q.** What about the “AVERAGE STUDY DRUG DOSE, MAXIMUM” value [2, 4] of the same compound?
**A.** Its value is 67.8 mg.

**Q.** What about the “AVERAGE STUDY DRUG DOSE, MEAN (SD)” value [2, 4] of the same compound?
**A.** Its value is 39.0 (19.87) MG.

**Q.** And the “AVERAGE STUDY DRUG DOSE, MEDIAN” value [2, 4]?
**A.** The value was 35.6 mg.

**Q.** And the “AVERAGE STUDY DRUG DOSE, MINIMUM” value [2, 4]?
**A.** Its value is 10.0 mg.

**Q.** And the “AVERAGE TITRATION DOSE, MAXIMUM” value [2, 4]?
**A.** The value was 42.3 mg.

**Q.** And the “AVERAGE TITRATION DOSE, MEAN (SD)” value [2, 4]?
**A.** The value was 24.2 (8.22) MG.

**Q.** What about the “AVERAGE TITRATION DOSE, MEDIAN” value [2, 4] of the same compound?
**A.** Its value is 25.9 mg.

**Q.** What about the “AVERAGE TITRATION DOSE, MINIMUM” value [2, 4] of the same compound?
**A.** Its value is 0.0 mg.

**Q.** What about the “Opioid drug dose required to achieve comparable pain relief” value ([2]; per day, p<0.05) of the same compound?
**A.** The value was “approximately 39 mg”.

**Q.** And the “Mean titration dose of oxycodone” value ([2]; titration period, ITT)?
**A.** Its value is 24.2 mg.

**Q.** And the “Pain intensity, actual value at Week 1, mean” value ([3]; FEMALE, 11-point scale)?
**A.** Its value is 6.2.

**Q.** And the “Pain intensity, actual value at Week 1, median” value ([3]; FEMALE, 11-point scale)?
**A.** Its value is 6.3.

**Q.** And the “Pain intensity, actual value at Week 2, mean” value ([3]; FEMALE, 11-point scale)?
**A.** Its value is 5.9.

**Q.** What about the “Pain intensity, actual value at Week 2, median” value ([3]; FEMALE, 11-point scale) of the same compound?
**A.** The value was 6.3.

**Q.** What about the “Pain intensity, actual value at Week 3, mean” value ([3]; FEMALE, 11-point scale) of the same compound?
**A.** The value was 5.9.

**Q.** And the “Pain intensity, actual value at Week 3, median” value ([3]; FEMALE, 11-point scale)?
**A.** Its value is 6.0.

**Q.** What about the “Pain intensity, percent change from baseline to Week 1, mean” value [3] of the same compound?
**A.** Its value is −18.4%.

**Q.** What about the “Pain intensity, percent change from baseline to Week 1, median” value [3] of the same compound?
**A.** Its value is −16.7%.

**Q.** What about the “Pain intensity, percent change from baseline to Week 2, mean” value [3] of the same compound?
**A.** The value was −22.9%.

**Q.** What about the “Pain intensity, percent change from baseline to Week 2, median” value [3] of the same compound?
**A.** Its value is −20.0%.

**Q.** And the “Pain intensity, percent change from baseline to Week 3, median” value [3]?
**A.** The value was −20.0%.

**Q.** And the “Pain intensity, actual value at Week 1, mean” value [3, 5]?
**A.** The value was 6.1.

**Q.** What about the “Pain intensity, actual value at Week 1, median” value [3, 5] of the same compound?
**A.** Its value is 6.0.

**Q.** And the “Pain intensity, actual value at Week 2, mean” value [3, 5]?
**A.** Its value is 5.8.

**Q.** And the “Pain intensity, actual value at Week 2, median” value [3, 5]?
**A.** Its value is 6.0.

**Q.** And the “Pain intensity, actual value at Week 3, mean” value [3, 5]?
**A.** The value was 5.6.

**Q.** And the “Pain intensity, actual value at Week 3, median” value [3, 5]?
**A.** The value was 5.5.

**Q.** And the “Pain intensity, percent change from baseline to Week 3, mean” value ([3]; primary efficacy endpoint)?
**A.** Its value is −24.6%.

**Q.** And the “Pain intensity, actual value at Week 2, mean” value ([3]; MALE, 11-point scale)?
**A.** Its value is 5.5.

**Q.** What about the “Pain intensity, actual value at Week 2, median” value ([3]; MALE, 11-point scale) of the same compound?
**A.** The value was 5.5.

**Q.** What about the “Pain intensity, actual value at Week 3, mean” value ([3]; MALE, 11-point scale) of the same compound?
**A.** The value was 5.0.

**Q.** What about the “Pain intensity, actual value at Week 3, median” value ([3]; MALE, 11-point scale) of the same compound?
**A.** Its value is 4.5.

**Q.** And the “Pain intensity, actual value at Week 1, mean” value ([3]; males, 11-point scale)?
**A.** The value was 5.9.

**Q.** And the “Pain intensity, actual value at Week 1, median” value ([3]; males, 11-point scale)?
**A.** Its value is 6.0.
